Measured values as given in patent US6800659B2, “Compounds for modulating cell proliferation” (HSC Research and Development Limited Partnership, priority 2000, dated 2004).

Tests used:
[1] = tested on: Philadelphia positive acute lymphoblastic leukemia (Ph+ ALL) cells; test: Colony growth of Philadelphia positive ALL cells in methylcellulose culture; type: cell-based, human
Procedure: (§1) Ph+ ALL cells were plated in 1 ml volumes, in the absence of exogenous growth factors, into 35 mm petri dishes (Nunc, Gibco) containing alpha MEM (Gibco) plus 10% FCS (Cansera Rexdale, ON.) in 0.9% (vol/vol) methylcellulose (Fluka, Switzerland) with the indicated concentrations of CR4. Cultures were set at 37° C., 5% CO2 in a humidified atmosphere. Colonies consisting of more than 20 cells were counted at 12 days or earlier using an inverted microscope.
as §1, with “ALL” for “Ph+ ALL”, “20%” for “10%”, “and” for “with”, “compound” for “CR4.”, “atmosphere” for “atmosphere.”
as §1, with “ALL” for “Ph+ ALL”, “20%” for “10%”, “ON)” for “ON.)”, “0.90%” for “0.9%”, “and” for “with”, “compound.” for “CR4.”
as §1, with “ALL” for “Ph+ ALL”, “20%” for “10%”, “and” for “with”, “CR24.” for “CR4.”, “9” for “12”
as §1, with “ALL” for “Ph+ ALL”, “20%” for “10%”, “and” for “with”, “CR19.” for “CR4.”, “9” for “12”

[2] = tested on: primary juvenile myelo-monocytic leukemia cells; test: Colony growth of primary JMML CD34+ cells in methylcellulose culture; type: cell-based, human; conditions: colonies at 12 days (FIG. 6)
Procedure: Heparinized bone marrow cells from a JMML patient were layered over Percoll (1.077 gm/ml) (Pharmacia Fine Chemical, Piscataway N.J.) and centrifuged at 400 g at 4° C. for 10 minutes to remove neutrophils and RBCs. Cells were further fractionated and purified on Miltenyl MS columns (Miltenyl Biotec GmbH, Germany) to acquire an early progenitor population of CD34^+ cells. The fractionated BM CD34^+ cells at a density of 1×10^4 cells/ml were cultured in IMDM (OCl, Toronto) containing 0.9% (vol/vol) methylcellulose supplemented with 30% FCS (Cansera Rexdale, ON.) with the indicated concentration of CR4. The culture mixture was plated in 1 ml volumes into 35 mm petri dishes and incubated at 37° C., 5% CO2 in a humidified atmosphere. Colonies consisting of more than 20 cells were counted at 12 days or earlier using an inverted microscope.

[3] = tested on: HuNS1 multiple myeloma cells; test: Colony growth of HuNS1 multiple myeloma cells in methylcellulose culture; type: cell-based
Procedure: HuNS1 cells were plated in 35 mm petri dishes (Nunc, Gibco) in 1 ml volumes at a density of 1×10^4 cells/ml, in the absence of exogenous growth factors, containing alpha MEM plus 20% FCS (Cansera, Rexdale Ont.), and 0.9% (vol/vol) methylcellulose (Fluka, Switzerland) and the indicated concentrations of CR4. Cell cultures were incubated in a humidified atmosphere at 37° C. with 5% CO2. Colonies containing more than 20 cells were scored, using an inverted microscope, at […].

[4] = tested on: Z119 acute lymphoblastic leukemia cells; test: In vitro purging of Z119 acute lymphoblastic leukemia; type: cell-based, human
Procedure: For the purging assay, the cells were resuspended in complete medium with or without CR4 as indicated and incubated at 37° C., 5% CO2 for 0-5 hours. Cells were then washed thoroughly with medium to remove the CR4, resuspended and plated in 1 ml volumes, in the absence of exogenous growth factors, into 35 mm petri dishes (Nunc, Gibco) containing alpha MEM (Gibco) plus 20% FCS (Cansera Rexdale, ON.) in 0.9% (vol/vol) methylcellulose (Fluka, Switzerland). Cultures were set at 37° C., 5% CO2 in a humidified atmosphere. Colonies consisting of more than 20 cells were counted at 9 days or earlier using an inverted microscope.

Jak2 = target: T1, Jak2 (Homo sapiens, UniProt O60674); test: Jak2 immunoprecipitate kinase assay after preincubation of Z119 cells; type: cell-based; conditions: Z119 cells preincubated for 5 hours (FIG. 24)
T1 construct: The cells were lysed in lysis buffer and immunoprecipitated with Jak2 antibody; endogenous in cells; host or cells: Z119 Ph+ ALL cell line (immunoprecipitate after 5 h preincubation of cells with CR4)
Procedure: Philadelphia (Ph+) ALL Line Z119 (5×10^6 Cells/point) was Preincubated for 5 Hours with Different Concentrations of CR4 and Immunoprecipitated with Jak2 Antibody
The cells were lysed in lysis buffer and immunoprecipitated with Jak2 antibody. The precipitates were washed twice with lysis buffer and once with kinase assay buffer, followed by addition of 10 μCi ^33PγATP. The reaction was stopped after 20 min by the addition of SDS-PAGE reducing sample buffer and separated on an 8-16% SDS-PAGE gel. The products were transferred onto nitrocellulose membrane and visualized by autoradiography.

[5] = Retention in blood after I.V. injection; type: in vivo; conditions: 30 minutes after I.V. injection
[6] = tested on: acute lymphoblastic leukemia, Philadelphia positive ALL, acute myeloid leukemia, myeloma and B-lineage lymphoma; test: Growth of cancer cells in culture, summary over cell types; type: cell-based
[7] = tested on: Philadelphia positive ALL, AML and lymphoma; test: High dose in vitro (ex vivo) purging assays, summary; type: cell-based
Source text: […] Cancer cell death was effected by the induction of apoptosis. Accordingly, in another aspect of the invention, there is provided a method for killing cancer cells by ex vivo treatment of bone marrow from a patient with cancer with a compound of the invention, preferably CR4 and CR11 and then re-introducing the treated (or purged) bone marrow into the patient.

T1 sequence (O60674 whole entry): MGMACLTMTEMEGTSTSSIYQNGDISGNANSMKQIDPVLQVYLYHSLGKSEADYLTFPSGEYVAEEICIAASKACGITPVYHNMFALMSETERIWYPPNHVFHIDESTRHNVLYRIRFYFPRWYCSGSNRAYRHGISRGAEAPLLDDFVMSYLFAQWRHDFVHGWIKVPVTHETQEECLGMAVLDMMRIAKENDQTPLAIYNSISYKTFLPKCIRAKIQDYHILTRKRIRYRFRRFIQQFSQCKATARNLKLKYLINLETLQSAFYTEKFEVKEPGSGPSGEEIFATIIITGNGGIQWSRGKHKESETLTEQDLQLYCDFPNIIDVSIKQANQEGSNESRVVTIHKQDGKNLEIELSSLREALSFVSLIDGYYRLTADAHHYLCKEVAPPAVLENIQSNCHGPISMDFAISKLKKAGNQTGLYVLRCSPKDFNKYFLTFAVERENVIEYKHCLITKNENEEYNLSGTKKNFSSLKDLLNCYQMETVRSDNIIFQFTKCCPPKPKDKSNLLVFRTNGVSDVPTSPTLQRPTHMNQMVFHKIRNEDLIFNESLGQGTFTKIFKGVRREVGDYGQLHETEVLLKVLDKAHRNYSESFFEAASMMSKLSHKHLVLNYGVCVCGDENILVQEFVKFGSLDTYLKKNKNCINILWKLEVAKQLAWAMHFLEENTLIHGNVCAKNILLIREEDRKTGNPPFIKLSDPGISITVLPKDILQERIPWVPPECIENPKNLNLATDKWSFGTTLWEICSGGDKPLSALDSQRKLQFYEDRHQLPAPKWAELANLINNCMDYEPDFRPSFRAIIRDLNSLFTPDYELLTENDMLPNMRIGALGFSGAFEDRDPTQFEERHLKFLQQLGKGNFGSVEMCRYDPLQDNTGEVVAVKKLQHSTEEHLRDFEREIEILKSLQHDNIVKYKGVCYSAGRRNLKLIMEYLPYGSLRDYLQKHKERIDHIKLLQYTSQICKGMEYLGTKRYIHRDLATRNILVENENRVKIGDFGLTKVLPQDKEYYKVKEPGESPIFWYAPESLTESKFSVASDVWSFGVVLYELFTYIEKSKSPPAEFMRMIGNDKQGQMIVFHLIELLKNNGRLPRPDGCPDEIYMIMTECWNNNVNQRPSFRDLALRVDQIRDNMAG

N#C/C(=C\C=C\c1ccc(O)c(O)c1)C(=O)NCc1ccccc1 [CR4, (E,E)-2-(benzylaminocarbonyl)-3-(3,4-dihydroxystyryl)acrylonitrile]
wipeout of bcr-abl transformed Philadelphia positive cells ([1]; concentrations as low as 40 nM): > 90%
inhibition of Ph+ ALL cell proliferation and survival ([1]; low nanomolar doses (35-100), colonies at 12 days (FIG. 2)): significant inhibition
inhibition at 5 µM ([2]; Homo sapiens, JMML, 288 h, 5 μM): 80 to 90%
killing ability with primary JMML cells [2]: moderate killing ability
inhibition at 2.5 µM ([3]; HuNS1, 2.5 μM (FIG. 19), read-out: inhibition of cell proliferation and survival): > 90%
inhibition of cell proliferation and survival ([3]; high nanomolar to low micromolar doses (FIG. 19)): significantly inhibited
killing of Z119 cells ([4]; 25 μM, 2.5 hours exposure (FIG. 15)): 85%
subsequent cell growth of Z119 cells ([4]; 25 μM, five hour exposure (FIG. 15)): complete ablation
inhibition of Z119 cell growth ([4]; 50 μM, 2.5 hours exposure (FIG. 15)): complete inhibition
killing of Z119 cells ([4]; at the concentrations examined (25 and 50 μM), 0-5 hours (FIG. 15)): rapid killing
Jak2 kinase activity (Jak2; 6 μM): dramatically inhibited
Jak2 kinase activity (Jak2; concentrations higher than 6 μM): further blocked
retention: presence in the blood [5]: still being detectable
effectiveness against a variety of cancer cells ([6]; concentrations ranging from 50 nM to 5 μM): highly effective
effectiveness against a variety of cell types (Acute Lymphoblastic Leukemia, Philadelphia positive Leukemia, Acute Myeloid Leukemia) ([6]; in culture): highly effective
toxicity to cancer cells ([6]; low nanomolar doses, long term exposure): highly toxic
effectiveness as ex vivo purging agents [7]: effective
inhibition of growth in purging assays ([7]; high dose (25-50 μM), 2.5 to 5 hour exposure time): > 90%
